Assay results: the supplement of paper PMC10307832

Tests used:
Test in all cases: relative viability (nuclei count vs DMSO), 5 days (fraction); higher = more cells survive
[1] = compound: COC1=C(C=C(C=C1)C2=CC3=NC=CN3C(=N2)NC4=C(C=CC=N4)C(=O)N)OC [BAY61-3606] + Nc1nc2[nH]cc(CCc3ccc(C(=O)N[C@@H](CCC(=O)O)C(=O)O)cc3)c2c(=O)[nH]1 [Pemetrexed] (partner 0.2 µM)
Summary of the method: (§1)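 Each reported value is a median over duplicate plates. It expresses relative viability: treated-well nuclei count divided by vehicle-well nuclei count. Lung cancer cell lines in 1536-well plates were dosed by pin tool a day after seeding, alone with one drug or with a fixed anchor-drug dose plus five library-drug doses (not always all listed) in √10 steps, and nuclei were counted after 5 days.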

[2] = compound: COc1cccc2c1C(=O)c1c(O)c3c(c(O)c1C2=O)C[C@@](O)(C(=O)CO)C[C@@H]3O[C@H]1C[C@H](N)[C@H](O)[C@H](C)O1 [Doxorubicin] + COc1cccc2cc(-c3nc([C@H]4CC[C@H](C(=O)O)CC4)n4ncnc(N)c34)[nH]c12 [OSI-027] (partner 0.5 µM)
Summary of the method: as §1

[3] = compound: COc1cccc2c1C(=O)c1c(O)c3c(c(O)c1C2=O)C[C@@](O)(C(=O)CO)C[C@@H]3O[C@H]1C[C@H](N)[C@H](O)[C@H](C)O1 [Doxorubicin] + Nc1ncn([C@H]2C[C@H](O)[C@@H](CO)O2)c(=O)n1 [Decitabine] (partner 2 µM)
Summary of the method: as §1

[4] = compound: COc1cccc2c1C(=O)c1c(O)c3c(c(O)c1C2=O)C[C@@](O)(C(=O)CO)C[C@@H]3O[C@H]1C[C@H](N)[C@H](O)[C@H](C)O1 [Doxorubicin] + O=C(c1cc(Cc2n[nH]c(=O)c3ccccc23)ccc1F)N1CCN(C(=O)C2CC2)CC1 [Olaparib] (partner 8 µM)
Summary of the method: as §1

Cell Line	relative viability ([1]; first compound 0.02 µM)	relative viability ([1]; first compound 0.06325 µM)	relative viability ([1]; first compound 0.2 µM)	relative viability ([1]; first compound 0.6325 µM)	relative viability ([1]; first compound 2 µM)	relative viability ([2]; first compound 0.001 µM)	relative viability ([2]; first compound 0.003162 µM)	relative viability ([2]; first compound 0.01 µM)	relative viability ([2]; first compound 0.03162 µM)	relative viability ([2]; first compound 0.1 µM)	relative viability ([3]; first compound 0.001 µM)	relative viability ([3]; first compound 0.003162 µM)	relative viability ([3]; first compound 0.01 µM)	relative viability ([3]; first compound 0.03162 µM)	relative viability ([3]; first compound 0.1 µM)	relative viability ([4]; first compound 0.001 µM)	relative viability ([4]; first compound 0.003162 µM)	relative viability ([4]; first compound 0.01 µM)	relative viability ([4]; first compound 0.03162 µM)	relative viability ([4]; first compound 0.1 µM)
NCI-H1437	0.333	0.342	0.33	0.31	0.346	0.828	0.916	0.842	0.698	0.351	0.538	0.616	0.501	0.417	0.361	0.639	0.631	0.567	0.416	0.417
HCC-827	0.274	0.295	0.274	0.254	0.262	0.725	0.714	0.796	0.671	0.754	0.339	0.328	0.333	0.264	0.262	0.653	0.65	0.66	0.62	0.579
NCI-H1650	0.351	0.356	0.42	0.46	0.331	0.496	0.567	0.394	0.153	0.144	0.396	0.314	0.361	0.245	0.135	0.764	0.865	0.401	0.179	0.127
HCC-15	0.235	0.216	0.233	0.213	0.204		0.677	0.635	0.284	0.136	0.628	0.704	0.571	0.408	0.211	0.731	0.657	0.692	0.522	0.491
EKVX	0.439	0.368	0.401	0.495	0.346	0.727	0.66	0.702	0.639	0.695	0.389	0.34	0.307	0.296	0.375	0.862	0.882	0.767	0.849	0.734
NCI-H2126	0.708	0.654	0.639	0.713	0.58	0.538	0.701	0.642	0.662	0.651	0.531	0.608	0.562	0.57	0.587	0.908	0.962	0.916	0.941	0.907
LK-2	0.245	0.232	0.384	0.288	0.252	0.175	0.191	0.244	0.187	0.199	0.238	0.376	0.251	0.258	0.23	0.713	0.672	0.585	0.604	0.653
COR-L23	0.198	0.203	0.2	0.202	0.195	0.753	0.912	0.741	0.452	0.193	0.427	0.452	0.391	0.253	0.157	0.361	0.38	0.29	0.147	0.131
NCI-H522	1.15	0.966	1.04	0.907	0.817	0.568	0.72	0.792	0.756	0.709	0.647	0.704	0.634	0.683	0.601	0.524	0.658	0.678	0.638	0.589
SW 1573	0.924	0.833	0.804	0.916	0.53	0.527	0.513	0.316	0.125	0.103	0.566	0.417	0.166	0.129	0.098	0.411	0.298	0.163	0.0977	0.047
SW 900	0.473			0.465	0.358	0.373	0.708	0.571	0.401	0.226		0.461	0.449	0.403	0.449		1.16	0.894	0.674	0.868
A-427	1.05	1.02	0.992	0.892	0.908	0.427	0.506	0.429	0.43	0.442	0.585	0.625	0.553	0.456	0.4	0.764	0.672	0.718	0.373	0.285
NCI-H1915	0.546	0.544	0.488	0.447	0.453	0.532	0.674	0.667	0.628	0.659	0.265	0.263	0.283	0.259	0.271	0.256	0.258	0.249	0.311	0.27
LOU-NH91	0.402	0.385	0.413	0.38	0.413	0.569	0.748	0.803	0.681	0.69		0.816	0.837	0.758	0.693		0.877	0.899	0.666	0.462
NCI-H1734	0.401	0.409	0.383	0.358	0.354	0.799	0.6	0.594	0.395	0.432	0.491	0.494	0.478	0.462	0.513	0.294	0.689	0.644	0.435	0.565
LCLC-97TM1	0.188	0.165	0.195	0.145	0.166	0.516	0.684	0.558	0.573	0.529	0.229	0.233	0.178	0.176	0.242	0.398	0.514	0.438	0.234	0.394
